Reference: US12378248B2 (The United States of America, as represented by the …, priority 2018, dated 2025)

Experiments:
[1] = tested on: wild-type C57BL/6J mice; test: Hypothermia (Tb by telemetry) after ip dosing; assay type: in vivo, mouse; conditions: average from dosing to 60 min, mean±SD
Experimental: (§1) Compounds were dosed ip. Tb and activity were measured by telemetry and the averages from dosing to 60 min were calculated. […] Data are for the highest dose used and are mean±SD from 3 to 22 mice/group (usually 5-7). P values are unpaired t-Test vs vehicle-treated controls assayed simultaneously. Vehicle data are mean±SD from all (n=83) vehicle treated mice.

[2] = target: dopamine transporter (DAT) (Homo sapiens, UniProt Q01959); test: Off-target interaction determined by the PDSP; assay type: binding; conditions: read-out: Off-target, receptor (h, unless noted) (Ki, μM): DAT
[3] = target: T1, mA3AR (Mus musculus, UniProt Q61618); test: Adenosine receptor binding, mA3AR; conditions: for Ki: (m), read-out: A3AR % inhibition or Ki (converted)
T1 sequence (Q61618 1-319): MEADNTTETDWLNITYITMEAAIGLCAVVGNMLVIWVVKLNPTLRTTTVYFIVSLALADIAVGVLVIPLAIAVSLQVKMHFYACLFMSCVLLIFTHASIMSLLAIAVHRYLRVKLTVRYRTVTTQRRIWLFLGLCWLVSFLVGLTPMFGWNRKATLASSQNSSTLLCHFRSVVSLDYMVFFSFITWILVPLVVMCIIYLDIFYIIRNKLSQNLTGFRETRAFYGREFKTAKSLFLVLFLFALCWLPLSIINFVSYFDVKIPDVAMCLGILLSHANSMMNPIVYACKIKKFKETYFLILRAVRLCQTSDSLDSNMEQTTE

[4] = target: TSPO (translocator protein) (UniProt P30536); test: Off-target interaction determined by the PDSP; assay type: binding, human; conditions: read-out: Off-target, receptor (h, unless noted) (Ki, μM): TSPO
[5] = target: T2, hA3AR (Homo sapiens, UniProt P0DMS8); test: Radioligand binding in membranes of CHO cells expressing hA3AR; conditions: read-out: A3AR % inhibition or Ki; for Ki: (h)
T2 construct: expressed in transfected cells; host or cells: CHO
T2 sequence (P0DMS8 1-318): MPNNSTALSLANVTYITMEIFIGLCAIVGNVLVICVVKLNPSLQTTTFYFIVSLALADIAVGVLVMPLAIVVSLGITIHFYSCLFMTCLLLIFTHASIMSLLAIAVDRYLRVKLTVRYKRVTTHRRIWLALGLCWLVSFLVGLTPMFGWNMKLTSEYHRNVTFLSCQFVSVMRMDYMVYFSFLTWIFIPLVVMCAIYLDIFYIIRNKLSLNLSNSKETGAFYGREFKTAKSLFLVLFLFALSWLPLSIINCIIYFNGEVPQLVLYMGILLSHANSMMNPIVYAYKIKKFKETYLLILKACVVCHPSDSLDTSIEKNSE

[6] = target: muscarinic receptor M5 (Homo sapiens, UniProt P08912); test: Off-target interaction determined by the PDSP; assay type: binding; conditions: read-out: Off-target, receptor (h, unless noted) (Ki, μM): M5
[7] = target: T3, serotonin receptor 5HT2C (Homo sapiens, UniProt P28335); test: Off-target interaction determined by the PDSP; assay type: binding; conditions: read-out: Off-target, receptor (h, unless noted) (Ki, μM): 5HT2C
T3 sequence (P28335 33-458): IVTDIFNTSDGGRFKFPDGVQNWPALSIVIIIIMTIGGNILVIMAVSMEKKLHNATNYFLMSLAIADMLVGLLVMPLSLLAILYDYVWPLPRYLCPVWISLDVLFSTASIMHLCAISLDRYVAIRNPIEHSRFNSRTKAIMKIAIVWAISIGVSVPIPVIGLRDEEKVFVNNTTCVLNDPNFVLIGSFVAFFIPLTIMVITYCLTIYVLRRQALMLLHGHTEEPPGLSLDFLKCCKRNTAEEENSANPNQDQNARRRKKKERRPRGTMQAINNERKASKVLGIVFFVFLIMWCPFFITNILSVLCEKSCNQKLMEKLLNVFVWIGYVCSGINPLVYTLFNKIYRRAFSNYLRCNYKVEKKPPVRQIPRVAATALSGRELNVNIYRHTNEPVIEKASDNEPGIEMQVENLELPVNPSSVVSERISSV

[8] = target: mA2AAR (Mus musculus, UniProt Q60613); test: Adenosine receptor binding, mA2AAR; conditions: read-out: A2AAR % inhibition (converted)
[9] = target: T4, hA2AAR (Homo sapiens, UniProt P29274); test: Radioligand binding in membranes of HEK293 cells expressing hA2AAR; conditions: read-out: A2AAR % inhibition
T4 construct: expressed in transfected cells; host or cells: HEK293

[10] = target: T5, mA1AR (Mus musculus, UniProt Q60612); test: Adenosine receptor binding, mA1AR; conditions: (m); Ki; read-out: A1AR % inhibition or Ki (converted)
T5 sequence (Q60612 1-326): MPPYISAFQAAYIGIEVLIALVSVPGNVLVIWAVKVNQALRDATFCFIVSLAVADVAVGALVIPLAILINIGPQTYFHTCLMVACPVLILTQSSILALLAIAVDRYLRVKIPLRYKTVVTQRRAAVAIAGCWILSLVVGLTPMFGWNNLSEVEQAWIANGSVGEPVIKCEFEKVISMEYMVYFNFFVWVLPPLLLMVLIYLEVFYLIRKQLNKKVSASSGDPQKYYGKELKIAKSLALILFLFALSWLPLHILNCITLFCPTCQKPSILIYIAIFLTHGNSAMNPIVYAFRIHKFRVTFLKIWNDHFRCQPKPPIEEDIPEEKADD

[11] = tested on: wild-type C57BL/6J mice; test: Locomotor activity by telemetry after ip dosing; assay type: in vivo, mouse; conditions: average from dosing to 60 min, mean±SD
Experimental: as §1

[12] = target: T6, hA1AR (Homo sapiens, UniProt P30542); test: Radioligand binding in membranes of CHO cells expressing hA1AR, [3H]N6-R-phenylisopropyladenosine; conditions: read-out: A1AR % inhibition or Ki; for Ki: (h)
T6 construct: expressed in transfected cells; host or cells: CHO
T6 sequence (P30542 1-326): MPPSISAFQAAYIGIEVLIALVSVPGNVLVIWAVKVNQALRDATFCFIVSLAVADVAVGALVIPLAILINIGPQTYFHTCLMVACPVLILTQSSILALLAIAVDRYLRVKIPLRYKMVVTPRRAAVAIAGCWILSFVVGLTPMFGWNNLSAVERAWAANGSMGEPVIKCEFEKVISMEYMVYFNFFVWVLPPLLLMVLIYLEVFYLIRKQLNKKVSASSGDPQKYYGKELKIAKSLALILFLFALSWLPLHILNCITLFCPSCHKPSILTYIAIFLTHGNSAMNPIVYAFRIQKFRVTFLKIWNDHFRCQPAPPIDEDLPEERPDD

[13] = target: serotonin receptor 5HT2B (Homo sapiens, UniProt P41595); test: Off-target interaction determined by the PDSP; assay type: binding; conditions: read-out: Off-target, receptor (h, unless noted) (Ki, μM): 5HT2B
[14] = target: sigma receptor σ2 (UniProt Q5BJF2); test: Off-target interaction determined by the PDSP; assay type: binding, human; conditions: read-out: Off-target, receptor (h, unless noted) (Ki, μM): σ2
[15] = target: adrenergic receptor α2A (Homo sapiens, UniProt P08913); test: Off-target interaction determined by the PDSP; assay type: binding; conditions: read-out: Off-target, receptor (h, unless noted) (Ki, μM): α2A
[16] = target: sigma receptor σ1 (Homo sapiens, UniProt Q99720); test: Off-target interaction determined by the PDSP; assay type: binding; conditions: read-out: Off-target, receptor (h, unless noted) (Ki, μM): σ1
[17] = target: histamine receptor H2 (Homo sapiens, UniProt P25021); test: Off-target interaction determined by the PDSP; assay type: binding; conditions: read-out: Off-target, receptor (h, unless noted) (Ki, μM): H2
[18] = target: muscarinic receptor M3 (Homo sapiens, UniProt P20309); test: Off-target interaction determined by the PDSP; assay type: binding; conditions: read-out: Off-target, receptor (h, unless noted) (Ki, μM): M3
[19] = target: kappa (KOR) opioid receptor (Homo sapiens, UniProt P41145); test: Off-target interaction determined by the PDSP; assay type: binding; conditions: read-out: Off-target, receptor (h, unless noted) (Ki, μM): KOR
[20] = target: adrenergic receptor β3 (Homo sapiens, UniProt P13945); test: Off-target interaction determined by the PDSP; assay type: binding; conditions: read-out: Off-target, receptor (h, unless noted) (Ki, μM): β3
[21] = target: histamine receptor H3 (Homo sapiens, UniProt Q9Y5N1); test: Off-target interaction determined by the PDSP; assay type: binding; conditions: read-out: Off-target, receptor (h, unless noted) (Ki, μM): H3

Sequence of serotonin receptor 5HT2B (P41595 whole entry): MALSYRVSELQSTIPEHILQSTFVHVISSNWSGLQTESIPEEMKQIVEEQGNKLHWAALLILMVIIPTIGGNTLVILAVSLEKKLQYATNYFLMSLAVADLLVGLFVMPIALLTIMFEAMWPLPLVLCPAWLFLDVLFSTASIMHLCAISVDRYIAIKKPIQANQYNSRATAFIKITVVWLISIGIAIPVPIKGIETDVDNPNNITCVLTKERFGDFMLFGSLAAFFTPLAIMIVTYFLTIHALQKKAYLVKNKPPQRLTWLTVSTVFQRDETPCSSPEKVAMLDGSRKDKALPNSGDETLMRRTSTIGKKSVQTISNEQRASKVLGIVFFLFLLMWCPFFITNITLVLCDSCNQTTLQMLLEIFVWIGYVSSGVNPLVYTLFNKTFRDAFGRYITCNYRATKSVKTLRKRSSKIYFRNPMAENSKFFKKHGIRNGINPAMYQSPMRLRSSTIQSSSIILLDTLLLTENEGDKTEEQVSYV
T4 sequence (P29274 whole entry): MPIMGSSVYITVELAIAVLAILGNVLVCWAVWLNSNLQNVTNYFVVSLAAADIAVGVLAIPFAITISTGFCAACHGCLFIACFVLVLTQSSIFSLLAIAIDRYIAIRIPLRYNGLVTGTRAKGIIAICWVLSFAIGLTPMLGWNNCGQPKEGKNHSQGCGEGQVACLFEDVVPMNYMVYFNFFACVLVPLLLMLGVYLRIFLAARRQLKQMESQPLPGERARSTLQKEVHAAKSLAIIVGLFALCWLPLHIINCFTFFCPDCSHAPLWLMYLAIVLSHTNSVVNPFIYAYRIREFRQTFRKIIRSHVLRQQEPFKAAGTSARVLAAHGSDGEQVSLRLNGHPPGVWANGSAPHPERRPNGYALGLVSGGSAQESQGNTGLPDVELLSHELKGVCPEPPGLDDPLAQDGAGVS
Sequence of mA2AAR (Q60613 whole entry): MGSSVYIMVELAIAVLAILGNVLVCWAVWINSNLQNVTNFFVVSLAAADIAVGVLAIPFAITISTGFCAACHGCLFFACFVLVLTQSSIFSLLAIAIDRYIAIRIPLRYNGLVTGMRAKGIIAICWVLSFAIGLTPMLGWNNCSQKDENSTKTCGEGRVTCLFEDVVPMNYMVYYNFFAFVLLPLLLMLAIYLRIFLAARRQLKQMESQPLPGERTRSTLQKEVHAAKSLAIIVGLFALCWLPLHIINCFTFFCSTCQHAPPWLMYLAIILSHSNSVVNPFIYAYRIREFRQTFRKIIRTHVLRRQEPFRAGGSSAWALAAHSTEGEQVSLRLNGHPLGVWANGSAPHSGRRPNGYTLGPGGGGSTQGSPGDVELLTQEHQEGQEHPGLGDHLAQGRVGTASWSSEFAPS
Sequence of muscarinic receptor M5 (P08912 whole entry): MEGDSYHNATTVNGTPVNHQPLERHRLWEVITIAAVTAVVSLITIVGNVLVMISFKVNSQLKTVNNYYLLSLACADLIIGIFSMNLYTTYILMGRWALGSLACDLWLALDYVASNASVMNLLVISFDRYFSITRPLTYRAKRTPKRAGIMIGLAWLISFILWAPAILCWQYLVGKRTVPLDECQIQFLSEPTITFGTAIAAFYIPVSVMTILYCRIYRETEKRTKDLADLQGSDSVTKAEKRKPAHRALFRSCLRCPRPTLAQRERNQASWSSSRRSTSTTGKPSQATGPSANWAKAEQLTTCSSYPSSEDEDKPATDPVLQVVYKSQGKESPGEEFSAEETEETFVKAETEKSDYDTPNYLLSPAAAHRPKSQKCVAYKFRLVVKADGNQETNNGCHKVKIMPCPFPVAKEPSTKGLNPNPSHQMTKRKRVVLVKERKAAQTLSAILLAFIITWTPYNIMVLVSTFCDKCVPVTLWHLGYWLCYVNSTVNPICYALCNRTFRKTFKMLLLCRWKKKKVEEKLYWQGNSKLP
Sequence of adrenergic receptor α2A (P08913 whole entry): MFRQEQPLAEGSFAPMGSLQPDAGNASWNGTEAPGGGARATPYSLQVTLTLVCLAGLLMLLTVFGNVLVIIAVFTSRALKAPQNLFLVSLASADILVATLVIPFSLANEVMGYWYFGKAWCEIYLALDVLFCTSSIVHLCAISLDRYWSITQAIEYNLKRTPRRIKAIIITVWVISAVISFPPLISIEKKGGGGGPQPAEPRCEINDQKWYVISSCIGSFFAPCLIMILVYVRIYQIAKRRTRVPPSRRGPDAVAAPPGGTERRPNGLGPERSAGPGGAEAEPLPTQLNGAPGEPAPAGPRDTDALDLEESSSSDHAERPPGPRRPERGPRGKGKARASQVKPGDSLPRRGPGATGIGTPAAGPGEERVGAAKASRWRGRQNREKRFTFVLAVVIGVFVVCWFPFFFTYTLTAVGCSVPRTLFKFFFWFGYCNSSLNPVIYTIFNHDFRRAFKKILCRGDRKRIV
Sequence of histamine receptor H2 (P25021 whole entry): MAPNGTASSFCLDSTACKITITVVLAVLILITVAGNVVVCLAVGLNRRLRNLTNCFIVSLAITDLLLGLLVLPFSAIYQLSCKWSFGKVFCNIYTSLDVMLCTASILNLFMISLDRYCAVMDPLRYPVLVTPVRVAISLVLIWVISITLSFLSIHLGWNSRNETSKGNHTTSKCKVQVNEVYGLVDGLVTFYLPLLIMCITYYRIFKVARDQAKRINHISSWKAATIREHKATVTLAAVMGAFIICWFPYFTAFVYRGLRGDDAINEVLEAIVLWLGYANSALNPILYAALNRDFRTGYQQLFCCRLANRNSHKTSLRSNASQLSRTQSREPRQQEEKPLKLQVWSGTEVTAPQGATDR
Sequence of kappa (KOR) opioid receptor (P41145 whole entry): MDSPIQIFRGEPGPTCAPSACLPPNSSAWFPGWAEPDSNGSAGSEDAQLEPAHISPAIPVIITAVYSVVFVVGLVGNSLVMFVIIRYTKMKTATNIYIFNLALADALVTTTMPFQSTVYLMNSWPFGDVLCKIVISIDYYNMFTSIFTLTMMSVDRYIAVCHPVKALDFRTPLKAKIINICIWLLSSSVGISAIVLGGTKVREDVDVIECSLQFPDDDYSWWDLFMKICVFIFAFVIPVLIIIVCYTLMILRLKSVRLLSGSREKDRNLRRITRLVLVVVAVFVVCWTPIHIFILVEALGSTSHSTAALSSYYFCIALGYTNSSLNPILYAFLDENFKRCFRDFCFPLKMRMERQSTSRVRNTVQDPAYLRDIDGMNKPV
Sequence of sigma receptor σ1 (Q99720 whole entry): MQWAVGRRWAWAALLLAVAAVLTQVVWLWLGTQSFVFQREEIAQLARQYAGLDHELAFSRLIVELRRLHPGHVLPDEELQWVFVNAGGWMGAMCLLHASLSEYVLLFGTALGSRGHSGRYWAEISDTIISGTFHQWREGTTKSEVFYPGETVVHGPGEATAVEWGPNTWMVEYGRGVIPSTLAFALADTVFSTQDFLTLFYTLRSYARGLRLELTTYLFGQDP
Sequence of adrenergic receptor β3 (P13945 whole entry): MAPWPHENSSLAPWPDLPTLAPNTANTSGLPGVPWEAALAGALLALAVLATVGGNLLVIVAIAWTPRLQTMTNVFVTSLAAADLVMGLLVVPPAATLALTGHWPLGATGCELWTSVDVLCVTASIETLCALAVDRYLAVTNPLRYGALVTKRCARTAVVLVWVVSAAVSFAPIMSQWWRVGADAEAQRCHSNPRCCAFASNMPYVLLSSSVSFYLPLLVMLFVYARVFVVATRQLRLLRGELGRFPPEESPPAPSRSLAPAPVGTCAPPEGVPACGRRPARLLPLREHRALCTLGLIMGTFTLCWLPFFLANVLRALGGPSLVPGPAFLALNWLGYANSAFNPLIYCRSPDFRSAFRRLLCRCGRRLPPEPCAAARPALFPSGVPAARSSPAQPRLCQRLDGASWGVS
Sequence of muscarinic receptor M3 (P20309 whole entry): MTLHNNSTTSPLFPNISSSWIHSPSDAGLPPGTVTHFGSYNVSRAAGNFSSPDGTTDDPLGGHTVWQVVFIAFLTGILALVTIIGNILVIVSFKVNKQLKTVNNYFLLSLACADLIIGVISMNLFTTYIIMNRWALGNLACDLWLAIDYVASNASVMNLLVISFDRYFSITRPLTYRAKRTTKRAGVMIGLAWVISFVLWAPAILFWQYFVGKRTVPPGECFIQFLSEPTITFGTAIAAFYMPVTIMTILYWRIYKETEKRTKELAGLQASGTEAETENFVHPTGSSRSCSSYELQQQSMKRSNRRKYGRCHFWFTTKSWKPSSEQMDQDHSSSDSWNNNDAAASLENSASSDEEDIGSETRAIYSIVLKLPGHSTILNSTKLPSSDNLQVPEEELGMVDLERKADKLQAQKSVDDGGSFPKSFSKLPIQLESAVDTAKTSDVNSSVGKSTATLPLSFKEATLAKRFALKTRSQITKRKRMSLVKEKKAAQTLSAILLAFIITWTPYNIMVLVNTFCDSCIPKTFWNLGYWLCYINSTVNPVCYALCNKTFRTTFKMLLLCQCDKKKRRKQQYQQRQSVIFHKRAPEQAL
Sequence of dopamine transporter (DAT) (Q01959 whole entry): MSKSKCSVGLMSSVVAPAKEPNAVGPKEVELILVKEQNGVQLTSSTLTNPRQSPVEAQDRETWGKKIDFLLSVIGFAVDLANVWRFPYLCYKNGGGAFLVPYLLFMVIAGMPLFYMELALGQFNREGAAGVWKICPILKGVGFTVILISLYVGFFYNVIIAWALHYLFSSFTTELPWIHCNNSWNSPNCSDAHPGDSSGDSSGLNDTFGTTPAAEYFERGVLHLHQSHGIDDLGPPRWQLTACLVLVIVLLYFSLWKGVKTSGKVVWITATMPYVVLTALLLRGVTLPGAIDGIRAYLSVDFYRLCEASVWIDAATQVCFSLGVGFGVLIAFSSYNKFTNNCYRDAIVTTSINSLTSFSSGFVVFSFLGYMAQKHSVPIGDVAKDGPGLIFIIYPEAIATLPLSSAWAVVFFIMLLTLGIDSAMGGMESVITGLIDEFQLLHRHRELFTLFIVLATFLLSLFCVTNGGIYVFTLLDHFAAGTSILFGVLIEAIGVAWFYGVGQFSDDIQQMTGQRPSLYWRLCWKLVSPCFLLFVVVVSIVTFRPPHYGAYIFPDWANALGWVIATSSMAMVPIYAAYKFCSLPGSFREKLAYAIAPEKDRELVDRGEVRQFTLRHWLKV

SMILES: OC[C@@]12C[C@@H]1[C@@H](n1cnc3c(NC(C4CCC4)C4CCC4)nc(Cl)nc31)[C@H](O)[C@@H]2O [Compound 25, (1R,2R,3S,4R,5S)-4-(2-Chloro-6-((dicyclobutylmethyl)amino)-9H-purin-9-yl)-1-(hydroxymethyl)bicyclo[3.1.0]hexane-2,3-diol]
- Tb (° C.) ([1]; 10 mg/kg ip): 36.6 ± 0.2 °C
- Ki [2]: 4.75 µM
- Ki [3]: 612 nM
- Ki [4]: 2.93 µM
- inhibition at 10 µM [5]: 25 ± 2%
- Ki [6]: 3 µM
- Ki [7]: 0.238 µM
- inhibition at 10 µM [8]: 26%
- inhibition at 10 µM [9]: 55 ± 5%
- Ki [10]: 2.47 nM
- Activity (counts) ([11]; 10 mg/kg ip): 18.4 ± 3.2 counts
- Ki [12]: 8.96 ± 1.02 nM

SMILES: O[C@H]1[C@H](n2cnc3c(NC(C4CCC4)C4CCC4)ncnc32)[C@H]2C[C@@]2(CCl)[C@H]1O [Compound 26, (1S,2R,3S,4R,5S)-1-(Chloromethyl)-4-(6-((dicyclobutylmethyl)amino)-9H-purin-9-yl)bicyclo[3.1.0]hexane-2,3-diol]
- Tb (° C.) ([1]; 3 mg/kg ip): 35.9 ± 0.5 °C
- Ki [3]: 934 nM
- Ki [13]: 2.01 µM
- Ki [4]: 2.02 µM
- Ki [14]: 1.17 µM
- inhibition at 10 µM [5]: 49 ± 4%
- Ki [15]: 6.8 µM
- inhibition at 10 µM [9]: 38 ± 3%
- Ki [16]: 1.5 µM
- Ki [10]: 1.05 nM
- Activity (counts) ([11]; 3 mg/kg ip): 14.8 ± 1.7 counts
- Ki [12]: 32.7 ± 12.4 nM

SMILES: O[C@H]1[C@H](n2cnc3c(NC(C4CCC4)C4CCC4)nc(Cl)nc32)[C@H]2C[C@@]2(CCl)[C@H]1O [Compound 27, (1S,2R,3S,4R,5S)-4-(2-Chloro-6-((dicyclobutylmethyl)amino)-9H-purin-9-yl)-1-(chloromethyl)bicyclo[3.1.0]hexane-2,3-diol]
- Tb (° C.) ([1]; 10 mg/kg ip): 36.5 ± 0.6 °C
- Ki [4]: 2.89 µM
- Ki [17]: 2.6 µM
- Ki [14]: 0.349 µM
- Ki [5]: 3820 ± 1820 nM
- Ki [7]: 1.75 µM
- inhibition at 10 µM [8]: 20%
- inhibition at 10 µM [9]: 17 ± 24%
- Ki [10]: 11.2 nM
- Activity (counts) ([11]; 10 mg/kg ip): 18.9 ± 10.2 counts
- Ki [12]: 120 ± 23 nM

SMILES: CCOC(=O)[C@@]12C[C@@H]1[C@@H](n1cnc3c(NC(C4CCC4)C4CCC4)nc(Cl)nc31)[C@H](O)[C@@H]2O [Compound 35, Ethyl (1S,2R,3S,4R,5S)-4-(2-Chloro-6-((dicyclobutylmethyl)amino)-9H-purin-9-yl)-2,3-dihydroxybicyclo[3.1.0]hexane-1-carboxylate]
- Ki [13]: 0.097 µM
- Ki [14]: 2.02 µM
- Ki [5]: 1160 ± 300 nM
- Ki [7]: 0.089 µM
- Ki [18]: 5.9 µM
- inhibition at 10 µM [9]: 57 ± 12%
- Ki [12]: 73.8 ± 14.2 nM

SMILES: O=C(NCCO)[C@@]12C[C@@H]1[C@@H](n1cnc3c(N[C@H]4C[C@H]5CC[C@@H]4C5)nc(Cl)nc31)[C@H](O)[C@@H]2O [Compound 37, (1S,2R,3S,4R,5S)-4-(6-(((1R,2S,4S)-bicyclo[2.2.1]heptan-2-yl)amino)-2-chloro-9H-purin-9-yl)-2,3-dihydroxy-N-(2-hydroxyethyl)bicyclo[3.1.0]hexane-1-carboxamide]
- Ki [3]: 447 nM
- Ki [13]: 0.718 µM
- Ki [19]: 2.63 µM
- Ki [5]: 127 ± 29 nM
- inhibition at 10 µM [8]: 23%
- Ki ([9]; (h), values without % sign (Ki)): 5400 nM
- Ki [10]: 1.56 nM
- Ki [12]: 17.6 ± 5.3 nM

SMILES: COC(=O)c1ncn([C@H]2[C@H](O)[C@H](O)[C@]3(CO)C[C@H]23)n1 [Compound 39, Methyl 1-((1S,2R,3S,4R,5R)-3,4-dihydroxy-5-(hydroxymethyl)bicyclo[3.1.0]hexan-2-yl)-1H-1,2,4-triazole-3-carboxylate]
- inhibition at 10 µM ([3]; read-out: A3AR % inhibition or Ki): 15 ± 2%
- Ki [20]: 1.42 µM
- Ki [14]: 1.72 µM
- inhibition at 10 µM [5]: 22 ± 4%
- Ki [21]: 4.52 µM
- inhibition at 10 µM [9]: 14 ± 5%
- Ki [10]: 2990 ± 80 nM
- inhibition at 10 µM [12]: 6 ± 4%
